According to the supplement of paper PMC10307832:

Legend:
Test in all cases: relative viability (nuclei count vs DMSO), 5 days (fraction); higher = more cells survive
[1] = compound: OCc1c[nH]c2ccccc12 [Indole-3-carbinol] + O=C(c1cc(Cc2n[nH]c(=O)c3ccccc23)ccc1F)N1CCN(C(=O)C2CC2)CC1 [Olaparib] (partner 8 µM)
In short: (§1)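 The day after seeding in 1536-well plates, lung cancer cell lines were treated by pin tool with a single drug, or with a fixed anchor-drug dose together with five library-drug doses (not always all listed) in √10 steps. After 5 days, a combined fix-and-stain solution (final 0.05% Triton X-100, 1% formaldehyde, 1 ug/ml Hoechst) was added. Nuclei counted on 4× images gave relative viability as treated counts over vehicle counts, reported as the median of duplicate plates.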

[2] = compound: OCc1c[nH]c2ccccc12 [Indole-3-carbinol] + Nc1nc2[nH]cc(CCc3ccc(C(=O)N[C@@H](CCC(=O)O)C(=O)O)cc3)c2c(=O)[nH]1 [Pemetrexed] (partner 0.2 µM)
In short: as §1

[3] = compound: OCc1c[nH]c2ccccc12 [Indole-3-carbinol] + C[C@]1(O)C[C@@H](c2nc(-c3ccc4ccc(-c5ccccc5)nc4c3)c3c(N)nccn32)C1 [Linsitinib] (partner 1 µM)
In short: as §1

[4] = compound: OCc1c[nH]c2ccccc12 [Indole-3-carbinol] + C[C@@H](Oc1cc(-c2cnn(C3CCNCC3)c2)cnc1N)c1c(Cl)ccc(F)c1Cl [Crizotinib] (partner 1 µM)
In short: as §1

[5] = compound: OCc1c[nH]c2ccccc12 [Indole-3-carbinol] + CC(=O)Nc1cccc(-n2c(=O)n(C3CC3)c(=O)c3c(Nc4ccc(I)cc4F)n(C)c(=O)c(C)c32)c1 [Trametinib] (partner 0.02 µM)
In short: as §1

Cell Line | relative viability ([1]; first compound 0.253 µM) | relative viability ([1]; first compound 0.8 µM) | relative viability ([1]; first compound 2.53 µM) | relative viability ([1]; first compound 8 µM) | relative viability ([2]; first compound 0.253 µM) | relative viability ([2]; first compound 0.8 µM) | relative viability ([2]; first compound 2.53 µM) | relative viability ([2]; first compound 8 µM) | relative viability ([3]; first compound 0.253 µM) | relative viability ([3]; first compound 0.8 µM) | relative viability ([3]; first compound 2.53 µM) | relative viability ([3]; first compound 8 µM) | relative viability ([4]; first compound 0.253 µM) | relative viability ([4]; first compound 0.8 µM) | relative viability ([4]; first compound 2.53 µM) | relative viability ([4]; first compound 8 µM) | relative viability ([5]; first compound 0.253 µM) | relative viability ([5]; first compound 0.8 µM) | relative viability ([5]; first compound 2.53 µM) | relative viability ([5]; first compound 8 µM)
HCC-366 | 0.459 | 0.386 | 0.35 | 0.309 | 0.198 | 0.202 | 0.179 | 0.169 | 0.663 | 0.369 | 0.615 | 0.705 | 0.606 | 0.497 | 0.732 | 0.561 | 0.358 | 0.322 | 0.422 | 0.304
HCC-827 | 0.67 | 0.621 | 0.719 | 0.61 | 0.261 | 0.258 | 0.278 | 0.255 | 1.04 | 1.01 | 0.962 | 0.942 | 0.9 | 1.03 | 0.945 | 0.892 | 0.516 | 0.542 | 0.505 | 0.533
HOP-62 | 0.541 | 0.368 | 0.525 | 0.399 | 0.284 | 0.296 | 0.388 | 0.376 | 1.03 | 1.06 | 1.14 | 0.937 | 0.621 | 0.912 | 0.889 | 0.924 | 0.348 | 0.373 | 0.358 | 0.32
IA-LM | 0.89 | 0.815 | 0.868 | 0.752 | – | – | – | – | 0.674 | 0.593 | 0.637 | 0.444 | 0.722 | 1.08 | 0.863 | 0.738 | – | – | – | –
LC-2-ad | 0.768 | 0.737 | 0.696 | 0.656 | 0.282 | 0.276 | 0.246 | 0.263 | 0.827 | 0.791 | 0.806 | 0.783 | 0.514 | 0.439 | 0.484 | 0.42 | 0.893 | 0.879 | 0.897 | 0.869
LCLC-97TM1 | 0.38 | 0.552 | 0.489 | 0.265 | 0.167 | 0.197 | 0.185 | 0.154 | 0.163 | 0.159 | 0.178 | 0.174 | 0.368 | 0.534 | 0.389 | 0.442 | 0.215 | 0.215 | 0.178 | 0.23
LCLC-103H | 0.732 | 0.734 | 0.763 | 0.633 | 0.444 | 0.493 | 0.462 | 0.468 | 1.13 | 1.04 | 1.12 | 0.972 | 1.13 | 1.12 | 1.01 | 0.977 | 0.701 | 0.614 | 0.651 | 0.571
LK-2 | 0.877 | 0.675 | 0.808 | 0.713 | 0.273 | 0.216 | 0.313 | 0.358 | 0.627 | 0.572 | 0.47 | 0.536 | 0.239 | 0.218 | 0.198 | 0.229 | 0.674 | 0.538 | 0.812 | 0.732
LOU-NH91 | 0.916 | 0.872 | 0.974 | 0.893 | 0.432 | 0.404 | 0.401 | 0.396 | 1.01 | 0.899 | 0.937 | 0.943 | 0.771 | 0.61 | 0.71 | 0.714 | 0.81 | 0.747 | 0.788 | 0.802
LU99A | 0.256 | 0.299 | 0.23 | 0.268 | 0.169 | 0.163 | 0.187 | 0.175 | 0.501 | 0.556 | 0.428 | 0.536 | 0.569 | 0.568 | 0.532 | 0.506 | 0.5 | 0.517 | 0.521 | 0.545
LXF-289 | 1.24 | 1.09 | 1.09 | 1.08 | 0.944 | 1.02 | 0.934 | 0.851 | 0.977 | 1.03 | 0.996 | 0.892 | 0.863 | 0.933 | 0.824 | 0.729 | 0.678 | 0.693 | 0.651 | 0.656
NCI-H522 | 0.657 | 0.564 | 0.663 | 0.608 | 0.979 | 1.12 | 1.08 | 1.04 | – | – | – | – | – | – | – | – | 0.794 | 0.798 | 0.839 | 0.749
NCI-H727 | 0.616 | 0.694 | 0.657 | 0.634 | – | – | – | – | 0.178 | 0.31 | 0.268 | 0.283 | 0.795 | 1.05 | 0.906 | 0.832 | 0.372 | 0.393 | 0.412 | 0.392
NCI-H1395 | 0.42 | 0.478 | 0.48 | 0.413 | 0.848 | 0.868 | 0.78 | 0.845 | 1.04 | 0.974 | 1.02 | 1.14 | – | – | – | – | 1 | 1.01 | 1.08 | 0.995
NCI-H1650 | 0.736 | 0.889 | 0.92 | 0.768 | 0.377 | 0.328 | 0.47 | 0.449 | – | – | – | – | 0.907 | 1.02 | 1.16 | 0.968 | 0.565 | 0.563 | 0.561 | 0.498
NCI-H1703 | 0.389 | 0.557 | 0.389 | 0.553 | – | – | – | – | 0.786 | 0.413 | 0.665 | 0.636 | 0.835 | 0.853 | 0.991 | 0.661 | – | – | – | –
NCI-H1793 | 0.947 | 0.917 | 0.505 | 0.764 | 0.934 | 0.773 | 1.03 | 0.761 | 0.932 | 0.898 | 1.08 | 0.927 | – | – | – | – | 0.403 | 0.442 | 0.455 | 0.481
NCI-H2170 | 0.633 | 0.617 | 0.597 | 0.586 | 0.286 | 0.24 | 0.292 | 0.273 | – | – | – | – | 1.26 | 1.3 | 1.15 | 1.03 | 0.882 | 0.859 | 0.892 | 0.869
SW 900 | 0.983 | 1.37 | 0.883 | 0.899 | 0.49 | 0.443 | 0.519 | 0.495 | – | – | – | – | – | – | – | – | 0.866 | 0.867 | 0.82 | 0.992
